Among the data in PubChem BioAssay AID258 (DTP/NCI, 2004) are T/C values, retold here.

The assay relates to CD2F1 mice, L1210 leukemia sc, survival T/C. Briefly: NCI In Vivo Anticancer Drug Screen. Data for tumor model L1210 Leukemia (subcutaneous) in CD2F1 (CDF1) mice. The conditions noted are these: endpoint: median survival time, higher = longer survival. The method in brief: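 Mice with transplanted tumor dosed; survival/tumor size read; T/C vs vehicle controls.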

Each structure is given as a SMILES string. Where “and” joins values, the source holds several entries; their conditions need not be identical. Equal entries are not always repeated. Inconclusive results and toxic doses are left out.

As for `Clc1ccc(CNc2ncnc3[nH]ncc23)cc1Cl`, the T/C (dose: 8.4 mg/kg/injection, schedule: Q01DX Z (sc), vehicle: methylcellulose (MC)) was 95 % of control; the T/C (dose: 14.0 mg/kg/injection, schedule: Q01DX Z (sc), vehicle: methylcellulose (MC)) is 95 % of control; the T/C (dose: 23.0 mg/kg/injection, schedule: Q01DX Z (sc), vehicle: methylcellulose (MC)) was 95 % of control; the T/C (dose: 39.0 mg/kg/injection, schedule: Q01DX Z (sc), vehicle: methylcellulose (MC)) is 100 % of control; the T/C (dose: 65.0 mg/kg/injection, schedule: Q01DX Z (sc), vehicle: methylcellulose (MC)) is 104 % of control; the T/C (dose: 108.0 mg/kg/injection, schedule: Q01DX Z (sc), vehicle: methylcellulose (MC)) is 114 % of control. Besides, where the note is “dose: 180.0 mg/kg/injection, schedule: Q01DX Z (sc), vehicle: methylcellulose (MC)”, the T/C is 104 % of control.

In the case of `O=NNc1cnccn1`, the T/C (dose: 8.6 mg/kg/injection, schedule: Q01DX009 (ip), vehicle: water) is 96 % of control; the T/C (dose: 14.4 mg/kg/injection, schedule: Q01DX009 (ip), vehicle: water) was 104 % of control; the T/C (dose: 24.0 mg/kg/injection, schedule: Q01DX009 (ip), vehicle: water) was 100 % of control; the T/C (dose: 66.66 mg/kg/injection, schedule: Q01DX009 (ip), vehicle: water) is 95 % of control; the T/C (dose: 66.67 mg/kg/injection, schedule: Q01DX009 (ip), vehicle: water) is 120 % of control.

With `OC(CBr)C(O)C(O)C(O)CBr` (stereo not given), the T/C is 103 % of control (dose: 40.0 mg/kg/injection, schedule: Q01DX009 (ip), vehicle: saline); 105 % of control (dose: 40.0 mg/kg/injection, schedule: Q01DX009 (sc), vehicle: saline + alcohol); 103 % of control (dose: 40.0 mg/kg/injection, schedule: Q01DX009 (sc), vehicle: saline with Tween-80); 113 % of control (dose: 80.0 mg/kg/injection, schedule: Q01DX009 (ip), vehicle: saline); 116 % of control (dose: 80.0 mg/kg/injection, schedule: Q01DX009 (sc), vehicle: saline + alcohol); 100 % of control (dose: 100.0 mg/kg/injection, schedule: Q01DX009 (ip), vehicle: saline with Tween-80). The T/C (dose: 100.0 mg/kg/injection, schedule: Q01DX009 (sc), vehicle: saline with Tween-80) is 103 % of control; the T/C (dose: 108.0 mg/kg/injection, schedule: Q01DX Z (sc), vehicle: carboxymethylcellulose (CMC)) is 100 % of control; the T/C (dose: 160.0 mg/kg/injection, schedule: Q01DX009 (sc), vehicle: saline + alcohol) was 121 % of control; the T/C (dose: 160.0 mg/kg/injection, schedule: Q01DX009 (sc), vehicle: saline with Tween-80) is 103 % of control; the T/C (dose: 200.0 mg/kg/injection, schedule: Q01DX009 (ip), vehicle: saline with Tween-80) was 103 % of control; the T/C (dose: 200.0 mg/kg/injection, schedule: Q01DX009 (sc), vehicle: saline with Tween-80) was 102 % of control. The T/C is, setting by setting: (dose: 240.0 mg/kg/injection, schedule: Q01DX009 (ip), vehicle: saline with Tween-80) 124 % of control; (dose: 300.0 mg/kg/injection, schedule: Q01DX Z (sc), vehicle: carboxymethylcellulose (CMC)) 100 % of control; (dose: 320.0 mg/kg/injection, schedule: Q01DX009 (sc), vehicle: saline with Tween-80) 109 % of control; (dose: 400.0 mg/kg/injection, schedule: Q01DX009 (ip), vehicle: saline with Tween-80) 103 % of control; (dose: 400.0 mg/kg/injection, schedule: Q01DX009 (sc), vehicle: saline with Tween-80) 110 % of control; (dose: 480.0 mg/kg/injection, schedule: Q01DX009 (ip), vehicle: saline with Tween-80) 88 % of control. In addition, the T/C is, setting by setting: (dose: 500.0 mg/kg/injection, schedule: Q01DX Z (sc), vehicle: carboxymethylcellulose (CMC)) 100 % of control; (dose: 640.0 mg/kg/injection, schedule: Q01DX009 (ip), vehicle: saline with Tween-80) 93 % of control; (dose: 640.0 mg/kg/injection, schedule: Q01DX009 (sc), vehicle: saline with Tween-80) 104 % of control; (dose: 800.0 mg/kg/injection, schedule: Q01DX009 (ip), vehicle: saline with Tween-80) 98 % of control; (dose: 800.0 mg/kg/injection, schedule: Q01DX009 (sc), vehicle: saline with Tween-80) 111 % of control; (dose: 960.0 mg/kg/injection, schedule: Q01DX009 (ip), vehicle: saline with Tween-80) 96 % of control.

As to `O=C(Nc1ccc(NC2=NCCN2)cc1)c1cccc(C(=O)Nc2ccc(NC3=NCCN3)cc2)c1`, the T/C is, setting by setting: (dose: 8.4 mg/kg/injection, schedule: Q01DX Z (sc), vehicle: water) 110 % of control; (dose: 14.0 mg/kg/injection, schedule: Q01DX Z (sc), vehicle: water) 100 % of control; (dose: 23.0 mg/kg/injection, schedule: Q01DX Z (sc), vehicle: water) 105 % of control; (dose: 39.0 mg/kg/injection, schedule: Q01DX Z (sc), vehicle: water) 110 % of control.

Turning to `CCOC(=O)c1c[nH]c2oc(/C=N/N3CC(CN4CCOCC4)OC3=O)cc2c1=O` (stereo not given), the T/C reads like this: (dose: 25.0 mg/kg/injection, schedule: Q01DX009 (ip), vehicle: acid diluted with saline) 101 % of control; (dose: 50.0 mg/kg/injection, schedule: Q01DX009 (ip), vehicle: acid diluted with saline) 109 % of control; (dose: 50.0 mg/kg/injection, schedule: Q01DX009 (ip), vehicle: other) 102 % of control; (dose: 79.0 mg/kg/injection, schedule: Q01DX005 (ip), vehicle: other) 108 % of control and 111 % of control; (dose: 100.0 mg/kg/injection, schedule: Q01DX009 (ip), vehicle: acid diluted with saline) 110 % of control; (dose: 118.7 mg/kg/injection, schedule: Q01DX005 (ip), vehicle: other) 109 % of control and 119 % of control. Further, the T/C (dose: 178.0 mg/kg/injection, schedule: Q01DX005 (ip), vehicle: other) is 113 % of control; the T/C (dose: 200.0 mg/kg/injection, schedule: Q01DX009 (ip), vehicle: acid diluted with saline) is 155 % of control; the T/C (dose: 400.0 mg/kg/injection, schedule: Q01DX005 (ip), vehicle: other) is 198 % of control; the T/C (dose: 400.0 mg/kg/injection, schedule: Q01DX009 (ip), vehicle: acid diluted with saline) is 156 % of control.
